{"source": "patent US7517654B2", "about": "“Peptide and a derivative thereof promoting cell adhesion and spreading” (Seoul National University Industry Foundation, priority 2004, dated 2009)", "format_in_all_cases": "cell-based, human", "key": {"FAK": {"system": "FAK", "experiment": "FAK phosphorylation assay (immunoblot, p-FAK/t-FAK)", "details": "15 min", "method": "The FAK phosphorylation assays were performed according to a method of Shang et al. (J. Biol. Chem., 276:33045, 2001). In detail, the HOK-16B cells were trypsinized, washed, and kept in suspension in serum-free KGM with 0.1% BSA for 1 h at 37° C. The 60-mm culture dishes were coated with laminin (5 μg/ml) or rLG3 protein (25 μg/ml) at 4° C. overnight. Peptides (50 μg/60-mm culture dish) were also coated on dishes by drying overnight. For the adherent FAK assay, 1×10^6 cells were plated onto uncoated, laminin-coated, rLG3 protein-coated, or various peptide-coated dishes and allowed to attach for 15, 30, or 60 min at 37° C. in an atmosphere of 5% CO2. At the end of the incubation, cells were washed with ice-cold PBS and lysed in RIPA buffer (50 mM Tris [pH 7.4], 150 mM NaCl, 1% Nonidet P-40, 0.5% Na-deoxycholate, 1 mM EDTA, 0.1% SDS, 2 mM Na3VO4, 1 mM glycerol phosphate, 1 mM PMSF, and protease inhibitor cocktail). Lysates were clarified by centrifugation at 12,000×g for 10 min at 4° C. to isolate cytosolic extracts.\nThe cytosolic extracts were denatured using SDS sample buffer [50 mM Tris-HCl (pH 6.8), 2% SDS, 10% glycerol, 0.1% bromophenol blue, 100 mM β-mercaptoethanol] and separated on an 8% SDS-polyacrylamide gel. Electrophoretic transfer of SDS-PAGE gel separated with protein to a nitrocellulose membrane was followed by immnoblotting with polyclonal anti-FAK antibodies to determine the total FAK level or immnoblotting with polyclonal anti-FAK [pY^397], [pY^407], [pY^576], [pY^577] or [pY^861] antibodies to determine the extent of tyrosine phosphorylation. The relative fold induction of FAK phosphorylation, defined as an increase in FAK phosphorylation of a sample relative to its corresponding background level (i.e., cells plated on plastic) was determined as follows: First, the densitomerty intensity of the phosphorylated FAK (p-FAK) and the total FAK (t-FAK) signals from the Western blots were measured with a LAS-1000plus (Fuji photo film, Japan). The ratio of p-FAK to t-FAK (p-FAK/t-FAK) for each sample was then calculated to correct for differences in protein loading. This ratio was normalized to the p-FAK/t-FAK ratio of the negative controls to obtain the relative fold induction of FAK phosphorylation.\nHOK-16B cells isolated by trypsinization were suspended for 1 hr, and kept in suspension (Sus), or replated on 60-mm culture dishes coated with or without laminin (5 μg/ml). The cells were kept for 15, 30, or 60 min for being attached on plates, then cell lysates were analyzed by immunoblot analysis with anti-FAK p-Y397 antibody (Biosource, Camariollo, Calif.). […] This effect was observed within 15 min and peaked at 15 min after exposure to the laminin-coated plate (FIG. 8A).\nTherefore, the extent of FAK phosphorylation at Tyr-397,-407,-576, -577, and -861 was investigated in HOK-16B cells cultured on plates coated with laminin (5 μg/ml), rLG3 (25 μg/ml), or peptides P1-P5 (50 μg/60-mm dish) for 15 min. The lysates were immnoblotted with polyclonal anti-FAK, p-Y397, p-Y407, p-Y576, p-Y577 or p-Y861 antibodies (Biosoucce, Camariollo, Calif.), and the total FAK level was detected using anti-FAK antibodies (Upstate Biotechnology, Lake Placid, N.Y. The ratio of p-FAK to t-FAK (p-FAK/t-FAK) for each sample was then calculated to correct for differences in protein loading. This ratio was normalized to the p-FAK/t-FAK ratio of the negative controls (cells on plates) to obtain the relative fold induction of FAK phosphorylation. As a result, the extent of FAK phosphorylation at Tyr-397 cultured on the laminin-coated or rLG3 protein-coated plates increased 16.2- and 8.2-fold compared with the untreated control (FIG. 8B)."}, "NHEK": {"system": "NHEK", "experiment": "Cell proliferation on coated plates, viable cell count by trypan blue exclusion", "details": "peptide P4 20 μg/12-well plate; 1-4 days; compared with PS-coated plate", "method": "Normal human epidermal keratinocytes (NHEK) tissue samples were prepared from foreskin tissue of healthy 1- to 3-year-old people. The tissue samples were washed three times with calcium- and magnesium-free Hanks balanced salt solution containing 3× antibiotics (CMF-HBSS; GibcoBRL), and added with CMF-HBSS containing collgenase (collgenase type II, 1.0 mg/ml; sigma Chemical Co.) and dispase (dispase grade II, 2.4 mg/ml; Boeringer-Mannheim) to isolate epithelial layer from epidermal tissue, and then, cultured in 95% air and 5% CO2 at 37° C. for 90 min. NHEKs were prepared from the isolated epidermal tissue, and cultured in epithelial cell medium containing 0.15 mM calcium and growth factor bullet kit (KGM; Clonetics Corp.). When cell density was about 70%, NHEKs were divided into 1×10^5 cells per 60-mm petri dish and cultured until cell density reached about 70%. NHEKs were subcultured two times the same way as the above and used.\n(§1) Polystyrene (PS), BSA (bovine serum albumin) and synthetic peptide P4 were coated on […]. NHEK (PD 13.0; 2×10^4 cells/12-well plate) and NHEF (passage number 4) cultures were added to the 12-well plate coated with the polystyrene (PS), BSA (1%) and synthetic peptide P4 (20 μg/12-well plate), and cultured for 1, 2, 3, or 4 days. Viable cells were counted by trypan blue exclusion in a hemocytometer. Data are expressed as mean ±SD (n=4)."}, "NHEF": {"system": "NHEF", "experiment": "Cell proliferation on coated plates, viable cell count by trypan blue exclusion", "details": "peptide P4 20 μg/12-well plate; 1-4 days; compared with PS-coated plate", "from_the_text": "Normal human […] (NHEF) were taken from foreskin tissue of healthy 1- to 3-year-old people, and washed three times with calcium- and magnesium-free Hanks balanced salt solution containing 3× antibiotics (CMF-HBSS; GibcoBRL), and prepared by explant culture. When cell density was about 80%, NHEFs were divided by the ratio of 1:3 and cultured until cell density reached about 80%. […] were subcultured 4 times the same way as the above and used.\nas §1"}}, "note": "“Also recorded” adds a separate entry of the source."}
{"molecule": "PPFLMLLKGSTR [peptide P4]", "values": [{"measurement": "FAK phosphorylation level at Tyr-577", "setting": "FAK; HOK-16B cells on coated dishes, peptides 50 μg/60-mm dish", "result": "higher than that in the cells spread on the other peptides; also recorded: lower than that on laminin"}, {"measurement": "increase in the number of NHEKs according to cell proliferation", "setting": "NHEK", "result": "increased more than that on PS-coated plate"}, {"measurement": "increase in the number of NHEFs according to cell proliferation", "setting": "NHEF", "result": "similar"}]}
{"molecule": "rLG3: recombinant His6-tagged LG3 domain, residues 1128-1364 of human laminin α3 chain (protein, listed as Homo sapiens, His6 tag, recombinant His6-tagged LG3 domain, residues 1128-1364 of human laminin α3 chain) VRLNDTVGVTKKCSEDWKLVRSASFSRGGQLSFTDLGLPPTDHLQASFGFQTFQPSGILLDHQTWTRNLQVTLEDGYIELSTSDSGGPIFKSPQTYMDGLLHYVSVISDNSGLRLLIDDQLLRNSKRLKHISSSRQSLRLGGSNFEGCISNVFVQRLSLSPEVLDLTSNSLKRDVSLGGCSLNKPPFLMLLKGSTRFNKTKTFRINQLLQDTPVASPRSVKVWQDACSPLPKTQANH", "values": [{"measurement": "changes of the FAK phosphorylation levels at Tyr-407, -576 and -861", "setting": "FAK; HOK-16B cells on coated dishes", "result": "not observed"}, {"measurement": "increase of FAK phosphorylation at Tyr-397 compared with the untreated control", "setting": "FAK; HOK-16B cells, laminin 5 μg/ml or rLG3 25 μg/ml coating, p-FAK/t-FAK normalized", "result": 8.2, "unit": "fold"}]}
